Results: US20240041042A1, “1-(PYRIDYL)-5-AZINYLPYRAZOLE DERIVATIVES, AND THEIR USE FOR CONTROL OF UNDESIRED PLANT GROWTH” (Bayer Aktiengesellschaft, priority 2020, published 2024)

Tests used:
Assay type in all cases: in vivo
[1] = system: Alopecurus myosuroides (ALOMY); assay: Pre-emergence herbicidal action against ALOMY; conditions: scored visually after about 3 weeks, 100% = plants have died
How it was run: (§1)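 Application rates ran to 320 g/ha or lower, with several dosages tested on the same weeds. The compound, as wettable powder or emulsion concentrate, is sprayed pre-emergence onto soil over sown seeds; greenhouse growth follows, and effect is rated visually after roughly 3 weeks.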

[2] = system: Echinochloa crus-galli (ECHCG); assay: Pre-emergence herbicidal action against ECHCG
How it was run: as §1

[3] = system: Lolium rigidum (LOLRI); assay: Pre-emergence herbicidal action against LOLRI
How it was run: as §1

[4] = system: Matricaria inodora (MATIN); assay: Pre-emergence herbicidal action against MATIN
How it was run: as §1

[5] = system: Pharbitis purpurea (PHBPU); assay: Pre-emergence herbicidal action against PHBPU
How it was run: as §1

[6] = system: Verconica persica (VERPE); assay: Pre-emergence herbicidal action against VERPE
How it was run: as §1

[7] = system: Abutilon theophrasti (ABUTH); assay: Post-emergence herbicidal action against ABUTH; conditions: visual rating about 3 weeks after treatment vs untreated controls (100% = plants have died, 0% = like control plants)
How it was run: (§2)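 Rates were 320 g/ha or below, applied as aqueous WP/EC spray with 0.5% additive (600 l/ha) onto one-leaf-stage plants. About 3 weeks later in the greenhouse, damage was scored visually against untreated plants on a 0–100% scale, where 100% means plants died.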

[8] = system: Amaranthus retroflexus (AMARE); assay: Post-emergence herbicidal action against AMARE
How it was run: as §2

[9] = system: Verconica persica (VERPE); assay: Post-emergence herbicidal action against VERPE
How it was run: as §2

[10] = system: Viola tricolor (VIOTR); assay: Post-emergence herbicidal action against VIOTR
How it was run: as §2

[11] = 80 g/ha, visual rating about 3 weeks after treatment vs untreated controls (100% = plants have died, 0% = like control plants)
[12] = 320 g/ha, visual rating about 3 weeks after treatment

| Structure (SMILES) | Pre-emergence action against ALOMY ([1]; 80 g/ha) [%] | Pre-emergence action against ALOMY ([1]; 320 g/ha) [%] | Pre-emergence action against ECHCG in % ([2]; dosage 80 g/ha) [%] | Pre-emergence action against ECHCG in % ([2]; dosage 320 g/ha) [%] | Pre-emergence action against LOLRI in % ([3]; dosage 80 g/ha) [%] | Pre-emergence action against LOLRI in % ([3]; dosage 320 g/ha) [%] | Pre-emergence action against MATIN in % ([4]; dosage 80 g/ha) [%] | Pre-emergence action against MATIN in % ([4]; dosage 320 g/ha) [%] | Pre-emergence action against PHBPU in % ([5]; dosage 80 g/ha) [%] | Pre-emergence action against PHBPU in % ([5]; dosage 320 g/ha) [%] | Pre-emergence action against VERPE in % ([6]; dosage 80 g/ha) [%] | Pre-emergence action against VERPE in % ([6]; dosage 320 g/ha) [%] | Post-emergence action against ABUTH in % ([7]; 80 g/ha) [%] | Post-emergence action against ABUTH in % ([7]; 320 g/ha) [%] | Post-emergence action against AMARE in % [8, 11] [%] | Post-emergence action against AMARE in % [8, 12] [%] | Post-emergence action against VERPE in % ([9]; 320 g/ha, VERPE) [%] | Post-emergence action against VERPE in % ([9]; dosage 80 g/ha) [%] | Post-emergence action against VIOTR in % ([10]; 320 g/ha) [%] | Post-emergence action against VIOTR in % ([10]; 80 g/ha) [%] |
| --- | --- | --- | --- | --- | --- | --- | --- | --- | --- | --- | --- | --- | --- | --- | --- | --- | --- | --- | --- | --- |
| COC(=O)C(C)COC(=O)[C@@H](C)Oc1nn(-c2ccccn2)c(-c2cncc(F)c2)c1Cl (stereo partly shown) [Example I-198] | 80 | 90 | 90 | 100 | 100 | 100 | 90 | 90 | 80 | 90 | 90 | 100 | 80 | 80 | 80 | 90 | 80 | 80 | 80 | – |
| CCOC(=O)[C@@H](C)Oc1nn(-c2nc(F)ccc2F)c(-c2cncc(F)c2)c1Cl [Example I-208] | 90 | 100 | 90 | 100 | 90 | 100 | 90 | 90 | 90 | 90 | 90 | 100 | 80 | 90 | – | 80 | 80 | 80 | 80 | 80 |
| COCCOC(=O)COc1nn(-c2ncccc2C)c(-c2cncc(F)c2)c1Br [Example I-212] | 100 | 100 | 100 | 100 | 80 | 90 | 80 | 90 | 90 | 90 | 80 | 100 | 80 | 80 | – | 80 | 80 | 80 | 80 | 80 |
| C[C@@H](Oc1nn(-c2ccccn2)c(-c2cncc(F)c2)c1Cl)C(=O)O [Example I-218] | 90 | 90 | 90 | 100 | 100 | 100 | 90 | 100 | 90 | 90 | 90 | 100 | 80 | 80 | 80 | 80 | 80 | 80 | 80 | 80 |
| COC(=O)C(C)COC(=O)C(C)Oc1nn(-c2ccccn2)c(-c2ccc(F)nc2)c1Cl (stereo not shown) [Example I-291] | 100 | 100 | – | 90 | 90 | 100 | – | 90 | – | 80 | – | 80 | – | 80 | 80 | 80 | 80 | – | 80 | 80 |
